Data set [1] has as its system SKBR3 lapatinib resistant (Lap.R) cells. Kind of data set: MTT cell viability assay, lapatinib resistant SKBR3 variant. The settings on record: for decrease in cell viability: Lap.R SKBR3. For orientation: Tetrazolium dyes change colour on reduction, which living cells bring about.
Data set [2] deals with HER2 (Homo sapiens, UniProt P04626).
For data set [3], the system named is MDA-MB-435 HER2+ cells resistant to lapatinib and trastuzumab. Kind of data set: MTT cell viability assay, therapy resistant MDA-MB-435 variant. The settings on record: 48 h. Type of data set: cell-based.
Data set [4] relates to SKBR3 therapy sensitive cells. Kind of data set: Mammosphere assay, therapy sensitive SKBR3 cells. The settings on record: 0.5 μM gefitinib or 0.1 μM lapatinib.
In data set [5] the test system is SKBR3 therapy resistant variants. Kind of data set: Mammosphere assay, therapy resistant SKBR3 variants. The settings on record: therapy resistant variants treated with gefitinib or lapatinib.
The subject of data set [6] is SKBR3 lapatinib resistant cells. Kind of data set: Caspase-Glo 3/7 apoptosis assay, lapatinib resistant SKBR3 cells. Type of data set: cell-based, human. The procedure:
(§1) FIG. 3A-3B. Apoptosis in therapy sensitive and resistant variants Apoptosis in therapy sensitive and resistant SKBR3 cell variants was detected by a Caspase-Glo 3/7 Assay. (A) Fold change in Caspase 3/7 activity in the therapy sensitive SKBR3 cell line following Gef or Lap treatment for 48 h compared to the vehicle controls. (B) Fold change in caspase 3/7 activity in the therapy resistant cell lines following treatment compared to non-treated cells. N=3±SEM, *=p≤0.05, ***=p≤0.005
(§2) FIG. 6A-6F. […] N=3±SEM *=p≤0.05, **=p≤0.01****=p≤0.001.
(§3) Apoptosis was analyzed by the Caspase-Glo 3/7 activity assay (Promega) as described by the manufacturer. Briefly, cells were seeded in a 96 well plate and treated for 48h. Luminogenic caspase- 3/7 substrate containing a DEVD sequence was added and incubated for 1h. The luminescence was measured by a plate-reading luminometer.

Data set [7] deals with HER2+ and EGFR+breast cancer cells. Kind of data set: Mammosphere forming efficiency with Rac inhibitors. Type of data set: cell-based.
For data set [8], the system named is gefitinib resistant SKBR3 variants. Kind of data set: Cell phenotype of gefitinib resistant SKBR3 variants after Rac inhibitor. Type of data set: cell-based, human.
Data set [9] has as its system Trastuzumab resistant SKBR3 cells. Kind of data set: MTT cell viability assay, Trastuzumab resistant SKBR3 variant. Type of data set: cell-based. The settings on record: Homo sapiens; for cytotoxicity at 0.25 µM: SK-BR-3.
Data set [10] deals with Rac. Kind of data set: Effective concentration of Rac inhibitors. The settings on record: relative to NSC23766.
The test system of data set [11] is Trastuzumab resistant SKBR3 variant. Kind of data set: Caspase 3/7 apoptosis assay, Trastuzumab resistant SKBR3 variant. Type of data set: cell-based, human.
For data set [12], the system named is Rac. The settings on record: Tiam1/Rac inhibitor, most studies; cited from earlier work.
The test system of data set [13] is SKBR3 gefitinib resistant (Gef.R) cells. Type of data set: cell-based, human.
The test system of data set [14] is SKBR3 therapy sensitive cells. Kind of data set: MTT cell viability assay, therapy sensitive SKBR3 cells. Type of data set: cell-based, human. The settings on record: 5 and 10 μM, 24 h.
Excerpt: as §2

The subject of data set [15] is SKBR3 therapy sensitive cells. Kind of data set: Caspase-Glo 3/7 apoptosis assay, therapy sensitive SKBR3 cells. Type of data set: cell-based, human. The settings on record: gefitinib, 48 h, vs vehicle. As for the experimental part:
as §1, §3

Setting [16] is: MBQ-167 250 nM, Lapatinib resistant SKBR3.

Like-named read-outs stand apart in the source and are kept apart here.

The values below come from US20220280525A1, “RAC INHIBITION AS A NOVEL THERAPEUTIC STRATEGY FOR EGFR/HER2 TARGETED THERAPY RESISTANT BREAST CANCER” (UNIVERSITY OF PUERTO RICO, priority 2021, published 2022).

On to `CS(=O)(=O)CCNCc1ccc(-c2ccc3ncnc(Nc4ccc(OCc5cccc(F)c5)c(Cl)c4)c3c2)o1` [lapatinib], for which the cell viability entry in [1] (Lap.R cells, lapatinib alone) is “did not affect the viability”. Further, in data set [2] (sensitive SKBR3 cells, 24 h, 0.5 μM gefitinib, 0.1 μM lapatinib), the “expression of total HER2” value was “significantly elevated”. Besides, in data set [2] (variants resistant to gefitinib 0.1 μM and lapatinib 0.1 μM, each with its own drug), the pHER2 levels result was “decreased pEGFR and pHER2 levels”. In addition, in data set [3] (single agent), the “sensitivity of cell viability” value is listed as “insensitive”. The figures for the mammosphere formation result in data set [4] and in data set [5] were “significant reduction in mammosphere formation” and “no significant effect on mammosphere formation”, respectively. Moreover, in data set [6] (lapatinib resistant variant in response to lapatinib), the “caspase 3/7 activity” value was “significant decrease in caspase 3/7 activity”.

`CCn1c2ccccc2c2cc(-n3nncc3-c3ccccc3)ccc21` (racemic) [MBQ-167]: the “decrease in cell viability” value in data set [1] (0.5 μM MBQ-167 alone), in data set [1] (0.5 μM MBQ-167 in combination with 0.5 μM lapatinib) and in data set [3] (MBQ-167 alone) was around 40% in each case. In data set [1] (setting [16]), this compound yielded a reduction of viability of 30%. Moreover, the cell viability result in data set [3] (MBQ-167 in the presence of trastuzumab) is reported as “inhibits MDA-MB-435 cell viability”. In addition, the “mammosphere forming efficiency (MFE)” value in data set [7] was “significantly reduce the MFE”. Moreover, the cell phenotype result in data set [8] was “cell rounding, detachment from the substrate, and subsequent death”. The “increase in caspase 3/7 activity” value in [6] (MBQ-167 0.25 μM alone, Lap.R SKBR3) is above 2 fold. Besides, the caspase activity entry in [6] (MBQ-167 0.25 μM in combination with lapatinib 0.5 μM, Lap.R SKBR3) is on record as “even higher significant increase in caspase activity”. For the same compound, in data set [6] (setting [16]), the apoptosis induction was 55%. Also, in [9] (SK-BR-3, read-out: IC50 (cell viability)), the IC50 is 100 nM. Also, the cytotoxicity at 0.25 µM in data set [9] (96 and 120h, 250 nM MBQ-167, read-out: reduction of viability) is 90 to 100%; in data set [9] (72 h, saturated at 250 nM, read-out: decrease in viability), 50%. Also, the “effective concentration lower than NSC23766” value in data set [10] is given as 100 ×. Further, the “apoptosis (Caspase 3/7)” value is “only partially overcame this resistance to apoptosis” in data set [11] (MBQ-167 in the presence of Trastuzumab) and “induced apoptosis” in data set [11] (single agent, MBQ-167 at 250-750 nM).

For `CCN(CC)CCCC(C)Nc1nc(C)cc(Nc2ccc3nc(C)cc(N)c3c2)n1` (centres unmarked) [NSC23766], in data set [12], the active concentration is 50 to 100 µM.

Consider `CCn1c2ccccc2c2cc(Nc3ccnc(NCCCN4CCOCC4)n3)ccc21` [EHop-016], for which the cell viability result in data set [1] (lapatinib resistant SKBR3, 5 and 10 μM, 24 h) is recorded as “statistically significant decrease in cell viability”; in [13], “statistically significant decrease in cell viability”; in data set [14] it was “statistically significant decrease in cell viability”. For the same compound, the “mammosphere forming efficiency (MFE)” value in data set [7] was “significantly reduce the MFE”. Besides, the “effective concentration lower than NSC23766” value in data set [10] was determined as 100 ×.

For the compound `COc1cc2ncnc(Nc3ccc(F)c(Cl)c3)c2cc1OCCCN1CCOCC1` [gefitinib], the figures for the mammosphere formation result in [4] and in [5] were “significant reduction in mammosphere formation” and “no significant effect on mammosphere formation”, respectively. Besides, the “apoptosis (caspase 3/7 activity)” value in data set [15] is “did not respond to gefitinib by apoptosis”.

Broadly, the IC50 is the concentration that gives 50% inhibition.
